Common to all, as to type: biochemical
The test system of one experiment is G9a Y1154A mutant. Put plainly: Substrate peptide alkylation by G9a-Y1154A with SAM analogues. The note with it: TAMRA-labeled H3K9 peptide; MALDI-MS.
Another experiment deals with G9a Y1154G mutant. Kind of experiment: Substrate peptide benzylation by G9a-Y1154G.
A further experiment relates to Y372G mutant of Suv39H2. Put plainly: Benzylation of substrate peptide and full-length H3 by Suv39H2-Y372G.
In experiment [1] the test system is Suv39H2 mutant / hole-modified CBX1. The note with it: full-length H3 and purified mononucleosomes; Western blot. In general terms: A western blot detects proteins with antibodies after separation by electrophoresis.

As to `Nc1ncnc2c1ncn2[C@@H]1O[C@H](C[S+](CC[C@H](N)C(=O)O)Cc2ccccc2)[C@@H](O)[C@H]1O` (some centres unmarked) [benzyl-SAM], the “substrate modification by G9a-Y1154A” value in the experiment on G9a Y1154A mutant is recorded as “not efficient at incorporating benzyl modification”. Further, the “substrate benzylation by G9a-Y1154G” value in the experiment with G9a Y1154G mutant (TAMRA-labeled H3K9 peptide, MALDI-MS) was “complete substrate benzylation”. In addition, in the experiment with G9a Y1154G mutant (under our assay conditions, Figure S2), the “dibenzylation of substrate by G9a mutant” value is recorded as “did not observe any dibenzylation”. Also, the “utilization of benzyl-SAM by Suv39H2-Y372G” value in the experiment with Y372G mutant of Suv39H2 is on record as “efficiently utilized benzyl-SAM”. For the same compound, the “H3 signal after enrichment with hole-modified CBX1” value in experiment [1] is “signal for H3 only in the presence of benzyl-SAM”.
